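In this assay, cells in 96-well plates receive the compound at five concentrations for 48 hours. Endpoints are linearly interpolated between the surrounding concentrations. The concentration for 50% growth inhibition is given as GI50.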 The source made the active and inactive calls. Cut-off read from the data, not from the text of the source: active = GI50 up to about 1.1 µM and inactive = higher.
Key:
Test in all cases: inhibition of tumour cell growth, NCI panel, 48 h
[1] = tested on: TK-10
[2] = tested on: M14
[3] = tested on: SW-620
[4] = tested on: IGROV-1
[5] = tested on: OVCAR-3
[6] = tested on: T47D
[7] = tested on: MDA-MB-435
[8] = tested on: SF-539
[9] = tested on: RPMI-8226
[10] = tested on: KM12
[11] = tested on: SK-OV-3
[12] = tested on: NCI-H460
[13] = tested on: SK-MEL-5
[14] = tested on: OVCAR-5
[15] = tested on: HT-29
[16] = tested on: COLO 205
[17] = tested on: NCI/ADR-RES
[18] = tested on: SNB-19
[19] = tested on: SR
[20] = tested on: DU-145

Measured: GI50

COc1nn(Cc2ccccn2)c2ccc([N+](=O)[O-])cc12
inactive: [1] 53.1 µM | [2] > 100 µM | [3] 63 µM | [4] 35.1 µM | [5] > 100 µM | [6] 77.8 µM | [7] 32.7 µM | [8] 27.4 µM | [9] 54.8 µM | [10] > 100 µM | [11] > 100 µM | [12] > 100 µM | [13] 30.5 µM | [14] > 100 µM | [15] 70.6 µM | [16] > 100 µM | [17] 64.4 µM | [18] > 100 µM | [19] 28.4 µM | [20] > 100 µM

CCOC(=O)C(C)(C)C(O)C(C)C (stereo not given)
inactive: [1] > 100 µM | [2] > 100 µM | [3] > 100 µM | [4] > 100 µM | [5] > 100 µM | [6] > 100 µM | [7] > 100 µM | [8] > 100 µM | [9] > 100 µM | [10] > 100 µM | [11] > 100 µM | [12] > 100 µM | [13] > 100 µM | [14] > 100 µM | [15] > 100 µM | [16] > 100 µM | [17] > 100 µM | [18] > 100 µM | [19] > 100 µM | [20] > 100 µM

CN(CCCNC(=O)c1nn(-c2ccccc2)c2c1ccc1ccccc12)CCCNC(=O)c1nn(-c2ccccc2)c2c1ccc1ccccc12
inactive: [1] 1.78 µM | [2] 1.85 µM | [3] 1.95 µM | [4] 1.65 µM | [5] 1.5 µM | [6] 1.82 µM | [7] 1.75 µM | [8] 1.96 µM | [9] 1.47 µM | [10] 2.16 µM | [11] 1.83 µM | [12] 1.76 µM | [13] 1.77 µM | [14] 2.3 µM | [15] 1.84 µM | [16] 1.65 µM | [17] 1.8 µM | [18] 1.79 µM | [19] 1.24 µM | [20] 1.91 µM

Cc1ccc2nc(-c3ccc(C(C)(C)C)cc3)oc(=O)c2c1
inactive: [1] 39.7 µM | [2] 23.8 µM | [3] 26.3 µM | [4] 23.1 µM | [5] 21.4 µM | [6] 21.4 µM | [7] 14.7 µM | [8] 18.2 µM | [9] 21 µM | [10] 7.38 µM | [11] 22.9 µM | [12] 16.2 µM | [13] 14.3 µM | [14] 28.8 µM | [15] 19.6 µM | [16] 18.2 µM | [17] 17.7 µM | [18] 25.2 µM | [19] 21.2 µM | [20] 26.7 µM
